Measured values taken from patent US12435059B2, “AMP-activated protein kinase inhibitors and methods of making and using the same” (The Regents of the University of Colorado, priority 2019, dated 2025).
Read-outs that look alike come from different tables or passages of the source.

How the values were obtained:
Assay in all cases: biochemical
Type in all cases: binding
468 kinases [1] = biological target: 468 kinases (Homo sapiens, UniProt O14976); conditions: GAK; read-out: % Inhibition @ 100 nM
468 kinases [2] = biological target: 468 kinases (Homo sapiens, UniProt O15111); conditions: IKK-alpha; read-out: % Inhibition @ 100 nM
468 kinases [3] = biological target: 468 kinases (Homo sapiens, UniProt O15264); conditions: p38-delta; read-out: % Inhibition @ 100 nM
468 kinases [4] = biological target: 468 kinases (Homo sapiens, UniProt O76039); conditions: CDKL5; read-out: % Inhibition @ 100 nM
468 kinases [5] = biological target: 468 kinases (Homo sapiens, UniProt O95382); conditions: ASK2; read-out: % Inhibition @ 100 nM
468 kinases [6] = biological target: 468 kinases (Homo sapiens, UniProt O95835); conditions: LATS1; read-out: % Inhibition @ 100 nM
468 kinases [7] = biological target: 468 kinases (Homo sapiens, UniProt P07332); conditions: FES; read-out: % Inhibition @ 100 nM
468 kinases [8] = biological target: 468 kinases (Homo sapiens, UniProt P10721, D816H); conditions: KIT(D816H); read-out: % Inhibition @ 100 nM
468 kinases [9] = biological target: 468 kinases (Homo sapiens, UniProt P21709); conditions: EPHA1; read-out: % Inhibition @ 100 nM
468 kinases [10] = biological target: 468 kinases (Homo sapiens, UniProt P23458); conditions: JAK1(JH1domain-catalytic); read-out: % Inhibition @ 100 nM
468 kinases [11] = biological target: 468 kinases (Homo sapiens, UniProt P29376); conditions: LTK; read-out: % Inhibition @ 100 nM
468 kinases [12] = biological target: 468 kinases (Homo sapiens, UniProt P41240); conditions: CSK; read-out: % Inhibition @ 100 nM
468 kinases [13] = biological target: 468 kinases (Homo sapiens, UniProt P46734); conditions: MEK3; read-out: % Inhibition @ 100 nM
468 kinases [14] = biological target: 468 kinases (Homo sapiens, UniProt P49674); conditions: CSNK1E; read-out: % Inhibition @ 100 nM
468 kinases [15] = biological target: 468 kinases (Homo sapiens, UniProt P49759); conditions: CLK1; read-out: % Inhibition @ 100 nM
468 kinases [16] = biological target: 468 kinases (Homo sapiens, UniProt P51451); conditions: BLK; read-out: % Inhibition @ 100 nM
468 kinases [17] = biological target: 468 kinases (Homo sapiens, UniProt P51617); conditions: IRAK1; read-out: % Inhibition @ 100 nM
468 kinases [18] = biological target: 468 kinases (Homo sapiens, UniProt P78362); conditions: SRPK2; read-out: % Inhibition @ 100 nM
468 kinases [19] = biological target: 468 kinases (Homo sapiens, UniProt Q00536); conditions: PCTK1; read-out: % Inhibition @ 100 nM
468 kinases [20] = biological target: 468 kinases (Homo sapiens, UniProt Q00537); conditions: PCTK2; read-out: % Inhibition @ 100 nM
468 kinases [21] = biological target: 468 kinases (Homo sapiens, UniProt Q04912); conditions: MST1R; read-out: % Inhibition @ 100 nM
468 kinases [22] = biological target: 468 kinases (Homo sapiens, UniProt Q13237); conditions: PRKG2; read-out: % Inhibition @ 100 nM
468 kinases [23] = biological target: 468 kinases (Homo sapiens, UniProt Q15349); conditions: read-out: % Inhibition @ 100 nM
468 kinases [24] = biological target: 468 kinases (Homo sapiens, UniProt Q8TDR2); conditions: STK35; read-out: % Inhibition @ 100 nM
468 kinases [25] = biological target: 468 kinases (Homo sapiens, UniProt Q8TF76); conditions: HASPIN; read-out: % Inhibition @ 100 nM
468 kinases [26] = biological target: 468 kinases (Homo sapiens, UniProt Q9BYP7); conditions: WNK3; read-out: % Inhibition @ 100 nM
468 kinases [27] = biological target: 468 kinases (Homo sapiens, UniProt Q9H0K1); conditions: SIK2; read-out: % Inhibition @ 100 nM
468 kinases [28] = biological target: 468 kinases (Homo sapiens, UniProt Q9H2G2); conditions: SLK; read-out: % Inhibition @ 100 nM
468 kinases [29] = biological target: 468 kinases (Homo sapiens, UniProt Q9HBY8); conditions: SGK2; read-out: % Inhibition @ 100 nM
468 kinases [30] = biological target: 468 kinases (Homo sapiens, UniProt Q9HCP0); conditions: CSNK1G1; read-out: % Inhibition @ 100 nM
468 kinases [31] = biological target: 468 kinases (Homo sapiens, UniProt Q9NYL2); conditions: ZAK; read-out: % Inhibition @ 100 nM
468 kinases [32] = biological target: 468 kinases (Homo sapiens, UniProt Q9UF33); conditions: EPHA6; read-out: % Inhibition @ 100 nM
468 kinases [33] = biological target: 468 kinases (Homo sapiens, UniProt Q9UM73, C1156Y); conditions: ALK(C1156Y); read-out: % Inhibition @ 100 nM

SMILES | inhibition at 0.1 µM (468 kinases [1]) | inhibition at 0.1 µM (468 kinases [2]) | inhibition at 0.1 µM (468 kinases [3]) | inhibition at 0.1 µM (468 kinases [4]) | inhibition at 0.1 µM (468 kinases [5]) | inhibition at 0.1 µM (468 kinases [6]) | inhibition at 0.1 µM (468 kinases [7]) | inhibition at 0.1 µM (468 kinases [8]) | inhibition at 0.1 µM (468 kinases [9]) | inhibition at 0.1 µM (468 kinases [10]) | inhibition at 0.1 µM (468 kinases [11]) | inhibition at 0.1 µM (468 kinases [12]) | inhibition at 0.1 µM (468 kinases [13]) | inhibition at 0.1 µM (468 kinases [14]) | inhibition at 0.1 µM (468 kinases [15]) | inhibition at 0.1 µM (468 kinases [16]) | inhibition at 0.1 µM (468 kinases [17]) | inhibition at 0.1 µM (468 kinases [18]) | inhibition at 0.1 µM (468 kinases [19]) | inhibition at 0.1 µM (468 kinases [20]) | further results
CCN(CC)CCNC(=O)c1c(C)[nH]c(/C=C2\C(=O)Nc3ccc(CCC(N)=O)cc32)c1C [Compound No. 16, (Z)-5-((5-(3-Amino-3-oxopropyl)-2-oxoindolin-3-ylidene)methyl)-N-(2-(diethylamino)ethyl)-2,4-dimethyl-1H-pyrrole-3-carboxamide] | 35% | 20% | 0% | 5% | 47% | 17% | 0% | 33% | 0% | 10% | 0% | 1% | 35% | 4% | 90.7% | 29% | 96.9% | 51% | 19% | 17% | inhibition at 0.1 µM (468 kinases [21]): 0%; inhibition at 0.1 µM (468 kinases [22]): 36%; inhibition at 0.1 µM (468 kinases [23]; RSK3(Kin.Dom.1-N-terminal)): 7%; inhibition at 0.1 µM (468 kinases [23]; RSK3(Kin.Dom.2-C-terminal)): 19%; inhibition at 0.1 µM (468 kinases [24]): 15%; inhibition at 0.1 µM (468 kinases [25]): 68%; inhibition at 0.1 µM (468 kinases [26]): 7%; inhibition at 0.1 µM (468 kinases [27]): 15%; inhibition at 0.1 µM (468 kinases [28]): 37%; inhibition at 0.1 µM (468 kinases [29]): 14%; inhibition at 0.1 µM (468 kinases [30]): 16%; inhibition at 0.1 µM (468 kinases [31]): 10%; inhibition at 0.1 µM (468 kinases [32]): 0%; inhibition at 0.1 µM (468 kinases [33]): 86%
CCN(CC)CCNC(=O)c1c(C)[nH]c(/C=C2\C(=O)Nc3ccc(CCO)cc32)c1C [Compound No. 10, (Z)—N-(2-(Diethylamino)ethyl)-5-((5-(2-hydroxyethyl)-2-oxoindolin-3-ylidene)methyl)-2,4-dimethyl-1H-pyrrole-3-carboxamide] | 36% | 0% | 0% | 0% | 0% | 43% | 20% | 6% | 0% | 0% | 8% | 0% | 9% | 37% | 90.2% | 40% | 99.3% | 66% | 0% | 0% | inhibition at 0.1 µM (468 kinases [21]): 5%; inhibition at 0.1 µM (468 kinases [22]): 0%; inhibition at 0.1 µM (468 kinases [23]; RSK3(Kin.Dom.1-N-terminal)): 13%; inhibition at 0.1 µM (468 kinases [23]; RSK3(Kin.Dom.2-C-terminal)): 0%; inhibition at 0.1 µM (468 kinases [24]): 21%; inhibition at 0.1 µM (468 kinases [25]): 59%; inhibition at 0.1 µM (468 kinases [26]): 9%; inhibition at 0.1 µM (468 kinases [27]): 0%; inhibition at 0.1 µM (468 kinases [28]): 59%; inhibition at 0.1 µM (468 kinases [29]): 0%; inhibition at 0.1 µM (468 kinases [30]): 0%; inhibition at 0.1 µM (468 kinases [31]): 10%; inhibition at 0.1 µM (468 kinases [32]): 0%; inhibition at 0.1 µM (468 kinases [33]): 90%
